Measurements published in patent US20250368636A1, “NOVEL HETEROCYCLIC COMPOUND, SALT THEREOF, AND L[…] COMPOSITION” (The University of Electro-Communications, priority 2022, published 2025).

What follows are molecules tested against natural firefly luciferase (Fluc) (Photinus pyralis, UniProt P08659) (assay: Measurement of emission spectrum with natural firefly luciferase, ATP magnesium salt and luminescent substrate). Conditions: 100 μM substrate solution, KPB pH 8.0, Fluc 1 mg/mL, 10 mM ATP magnesium salt, measured for 180 seconds.
Type: biochemical
Description: The emission spectra were measured using the luminescent substrates represented by the structural formulas (1-1) to (1-10) synthesized as described above and the luminescent substrate represented by the structural formula (a) below. The luminescent substrate represented by the structural formula (a) was prepared according to “Synthesis of Luminescent Substrate C” in WO 2021/193069 A1 (PTL 4).
Specifically, 5 μL of 500 mM potassium phosphate buffer (KPB, pH 8.0), 5 μL of a 100 μM solution of each luminescent substrate, 5 µL of a 1 mg/mL solution of natural firefly luciferase (Fluc), and 10 μL of a 10 mM ATP magnesium salt solution were mixed, and the emission spectrum was measured for 180 seconds using a luminescence measurement device (AB-1850 manufactured by ATTO Corporation). However, the substrate concentration for the luminescent substrate represented by the structural formula (a) was set to 1 mM, and the substrate concentration for the luminescent substrate represented by the structural formula (1-6) was set to 10 mM. Note that FIGS. 1 to 3 illustrate emission spectra normalized so that the maximum emission intensity was 1.

Chain of natural firefly luciferase (Fluc) (P08659 whole entry): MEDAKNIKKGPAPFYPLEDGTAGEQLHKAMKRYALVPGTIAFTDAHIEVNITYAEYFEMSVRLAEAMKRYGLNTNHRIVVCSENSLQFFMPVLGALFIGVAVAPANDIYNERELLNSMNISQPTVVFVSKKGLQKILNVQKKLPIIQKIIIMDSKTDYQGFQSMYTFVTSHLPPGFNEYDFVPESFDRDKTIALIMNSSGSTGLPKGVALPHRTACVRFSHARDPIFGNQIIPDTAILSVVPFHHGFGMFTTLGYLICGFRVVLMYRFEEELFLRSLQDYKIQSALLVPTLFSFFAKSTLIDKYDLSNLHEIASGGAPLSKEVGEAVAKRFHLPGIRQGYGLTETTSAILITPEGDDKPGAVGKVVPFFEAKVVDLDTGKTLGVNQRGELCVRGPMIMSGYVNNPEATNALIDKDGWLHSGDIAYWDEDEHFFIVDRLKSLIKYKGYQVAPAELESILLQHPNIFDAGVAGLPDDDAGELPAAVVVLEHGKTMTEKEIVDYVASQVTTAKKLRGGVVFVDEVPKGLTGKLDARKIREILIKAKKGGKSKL

In order of rising “Maximum emission wavelength for each substrate (λmax)” value:
1. O=C(O)[C@H]1CSC(c2ccc(/C=C/c3ccc[nH]3)cc2)=N1 [Compound of structural formula (1-1)]  640 nm
2. Cn1cccc1/C=C/c1ccc(C2=N[C@@H](C(=O)O)CS2)cc1 [Compound of structural formula (1-3)]  640 nm
3. O=C(O)[C@H]1CSC(c2ccc(/C=C/c3ccc[nH]3)cn2)=N1 [Compound of structural formula (1-2)]  660 nm
4. Cn1cccc1/C=C/c1ccc(C2=N[C@@H](C(=O)O)CS2)nc1 [Compound of structural formula (1-4)]  660 nm
5. CN(C)c1ncc(/C=C/c2ccc(C3=N[C@@H](C(=O)O)CS3)cc2)s1 [Compound of structural formula (1-8)]  680 nm
6. CN(C)c1ncc(/C=C/c2ccc(C3=N[C@@H](C(=O)O)CS3)nc2)s1 [Compound of structural formula (1-7)]  710 nm
7. CN(C)c1cnc(/C=C/c2ccc(C3=N[C@@H](C(=O)O)CS3)cn2)s1 [Compound of structural formula (1-10)]  730 nm
8. CN(C)c1cnc(/C=C/c2ccc(C3=N[C@@H](C(=O)O)CS3)nc2)s1 [Compound of structural formula (1-9)]  760 nm
